Source: ChEMBL document CHEMBL1146406, “Inhibition of Bacterial RNA Polymerases. Peptide Metabolites from the Cultures of Streptomyces sp” (J Nat Prod, 1997)
Activity calls are given as the source filed them. The calls are words filed in the database; no cut-off is given here. Numbered stars: 1 amine (or outer) side, 2 acyl side, 3 side chain; on linkers, the order of the positions; unused ones are H or OH. Bridge positions count the residues as written; N and C are the ends. Square brackets hold non-standard residues; d marks the D form. Peptide text beside a SMILES is read from it. * marks the point of attachment. X2 = C[C@H](Oc1ccc([C@H](N[*:1])C(=O)[*:2])cc1)[C@@]1(/C=C/C(=O)[*:3])CO1; X1 = CC(C)[C@H](O)[C@H](C)C(=O)*; aIle = CC[C@@H](C)[C@H](N)C(=O)O; dNMeF = CN[C@H](Cc1ccccc1)C(=O)O; aThr = C[C@H](O)[C@H](N)C(=O)O

Legend:
Staphylococcus aureus = test: (§1) Inhibition of Staphylococcus aureus RNA polymerase by high throughput filtration assay
Escherichia coli = test: (§2) Inhibition of Escherichia coli RNA polymerase by high throughput filtration assay
[1] = as §1
Homo sapiens = species on record: Homo sapiens; test: Inhibition of human RNA polymerase
[2] = as §2

Row | Structure (SMILES) | Activity (Staphylococcus aureus) | Activity (Escherichia coli) | IC50 [1] | Activity (Homo sapiens) | IC50 [2]
1 | CC[C@@H](C)[C@@H]1NC(=O)[C@@H](CC(C)C)NC(=O)[C@H](CC(C)C)NC(=O)[C@H](Cc2c[nH]c3ccccc23)NC(=O)CNC(=O)[C@H](CC(N)=O)NC1=O (cyclo(GWL[dL][aIle]N)) | inactive | inactive | – | – | –
2 | CC[C@@H](C)[C@@H]1NC(=O)[C@H](NC(=O)[C@@H](C)[C@@H](O)C(C)C)[C@H](C)OC(=O)[C@H]2COC(=O)CNC(=O)/C=C/[C@@]3(CO3)[C@H](C)Oc3ccc(cc3)[C@H](NC1=O)C(=O)N(C)[C@H](Cc1ccccc1)C(=O)N[C@@H]([C@H](C)O)C(=O)N2 [SALINAMIDE A] (X1-[dT][aIle][X2][dNMeF][aThr][dS]; ester 1-C; linker 3-6 via G) | – | – | 0.5 µM | inactive | 0.5 µM
